In the assay the target is T1, X-linked inhibitor of apoptosis protein (XIAP) (Homo sapiens, UniProt P98170).
T1 construct: BIR3 domain (XIAP-AG fusion); with Smac N-terminal region (SmacNT-PB1), displaced
Kind of assay: Fluoppi high-content assay in HEK293 cells, Smac/XIAP dissociation. It is filed as cell-based.

The structures appear in SMILES notation.

T1 sequence (P98170 241-356 limits assumed): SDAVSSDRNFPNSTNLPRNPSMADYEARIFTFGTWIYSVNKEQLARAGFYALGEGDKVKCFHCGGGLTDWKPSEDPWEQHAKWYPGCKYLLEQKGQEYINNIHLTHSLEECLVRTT
T1 sequence (Q9NR28 56-239 partner): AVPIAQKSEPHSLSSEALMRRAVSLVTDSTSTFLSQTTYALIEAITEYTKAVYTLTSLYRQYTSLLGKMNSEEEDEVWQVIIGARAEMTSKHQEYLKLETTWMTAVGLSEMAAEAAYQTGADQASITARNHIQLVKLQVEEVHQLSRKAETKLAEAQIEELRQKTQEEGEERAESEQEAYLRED

Consider `CN[C@@H](C)C(=O)N[C@H]1CN(C(=O)CC(C)C)CC[C@H]2CC[C@@H](C(=O)NC(c3ccccc3)c3ccccc3)N2C1=O` [AT-406], for which 9.2 ± 1.2 µM corresponded to half-maximal inhibition (IC50).

As a reminder, the IC50 is the concentration that gives 50% inhibition. Lower therefore signals inhibition by little substance.

Values taken from paper PMC5390312, “Genetic visualization of protein interactions harnessing liquid phase transitions” (Scientific Reports, 2017).
